Laboratory results published in PubChem BioAssay (NCI).
Values joined by “and” are separate entries in the source; they are usually repeats but may differ in a detail not shown here. Identical values can stand only once.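 48-hour exposure; five concentrations; linearly interpolated endpoints. At the GI50, growth is halved. Definition used: TGI = concentration required for complete inhibition of growth.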

What was measured:
Assay in all cases: NCI tumour cell line growth inhibition, 48 h
786-0 renal = system: 786-0 renal
SNB-75 CNS = system: SNB-75 CNS
SNB-19 CNS = system: SNB-19 CNS
A549 NSCLC = system: A549 NSCLC
DU-145 prostate = system: DU-145 prostate
SR leukemia = system: SR leukemia
NCI/ADR-RES ovarian = system: NCI/ADR-RES ovarian
HOP-92 NSCLC = system: HOP-92 NSCLC
HCC-2998 colon = system: HCC-2998 colon
SK-OV-3 ovarian = system: SK-OV-3 ovarian

Q: What does the source list for `O=C1CSC2(CC(/C=C/c3ccccc3[N+](=O)[O-])=NN2c2cccc(S(=O)(=O)O)c2)N1c1nc2ccccc2s1` (stereo unspecified)?
A: TGI (786-0 renal): 22.5 µM; TGI (SNB-75 CNS): 28.8 µM; TGI (SNB-19 CNS): 35.1 µM; TGI (A549 NSCLC): 52.9 µM; TGI (DU-145 prostate): 27.5 µM; TGI (SR leukemia): 63.1 µM; TGI (NCI/ADR-RES ovarian): 50.7 µM; TGI (HOP-92 NSCLC): 56.7 µM; TGI (HCC-2998 colon): > 75 µM

Q: What does the source list for `COc1ccc(OC)c2c1-c1nnnn1CCC2(C)C`?
A: TGI (786-0 renal): > 100 µM; TGI (SNB-75 CNS): > 100 µM; TGI (SK-OV-3 ovarian): > 100 µM; TGI (SNB-19 CNS): > 100 µM; TGI (DU-145 prostate): > 100 µM; TGI (SR leukemia): > 100 µM; TGI (NCI/ADR-RES ovarian): > 100 µM; TGI (HOP-92 NSCLC): > 100 µM; TGI (HCC-2998 colon): > 100 µM

Q: For `Oc1ccccc1/C=N/N1C(=S)N(c2ccccc2)C(=Nc2ccccc2)C1=Nc1ccccc1`, which TGI (786-0 renal) is on record?
A: 14.1 µM

Q: What about the TGI (SNB-75 CNS) of the same compound?
A: 11.4 µM

Q: What about the TGI (SK-OV-3 ovarian) of the same compound?
A: 30.7 µM

Q: What about the TGI (SNB-19 CNS) of the same compound?
A: 20.7 µM

Q: What about the TGI (A549 NSCLC) of the same compound?
A: 37.7 µM

Q: What about the TGI (DU-145 prostate) of the same compound?
A: > 68.3 µM

Q: And the TGI (SR leukemia)?
A: > 81.2 µM

Q: What about the TGI (NCI/ADR-RES ovarian) of the same compound?
A: 41 µM

Q: And the TGI (HOP-92 NSCLC)?
A: 16.3 µM

Q: And the TGI (HCC-2998 colon)?
A: > 78.2 µM

Q: With `COc1ccc2oc(=O)c(-c3nc4ccccc4s3)cc2c1` as the compound, how does the TGI (786-0 renal) read?
A: 20.5 µM

Q: What about the TGI (SNB-75 CNS) of the same compound?
A: 27.5 µM

Q: What about the TGI (SK-OV-3 ovarian) of the same compound?
A: 36.5 µM

Q: What about the TGI (SNB-19 CNS) of the same compound?
A: > 100 µM

Q: What about the TGI (A549 NSCLC) of the same compound?
A: > 41.9 µM

Q: What about the TGI (DU-145 prostate) of the same compound?
A: > 67.5 µM

Q: What about the TGI (SR leukemia) of the same compound?
A: > 100 µM

Q: And the TGI (NCI/ADR-RES ovarian)?
A: > 96 µM

Q: And the TGI (HOP-92 NSCLC)?
A: 58.2 µM

Q: And the TGI (HCC-2998 colon)?
A: > 100 µM

Q: How did the TGI (786-0 renal) turn out when `N#C[C@H](c1nc2ccccc2[nH]1)c1nc2ccccc2nc1Cl` was run?
A: > 100 µM

Q: What about the TGI (SNB-75 CNS) of the same compound?
A: 41.1 µM

Q: What about the TGI (SK-OV-3 ovarian) of the same compound?
A: > 100 µM

Q: And the TGI (SNB-19 CNS)?
A: 38.8 µM

Q: And the TGI (A549 NSCLC)?
A: > 100 µM

Q: And the TGI (DU-145 prostate)?
A: 4.09 µM

Q: What about the TGI (SR leukemia) of the same compound?
A: 13.8 µM

Q: What about the TGI (NCI/ADR-RES ovarian) of the same compound?
A: > 100 µM

Q: And the TGI (HOP-92 NSCLC)?
A: > 75.6 µM

Q: What about the TGI (HCC-2998 colon) of the same compound?
A: > 60.9 µM

Q: Which TGI (786-0 renal) does the source give for `O=C1N(c2ccccc2)N=C2c3ccncc3C3=NN(c4ccccc4)C(=O)C123` (stereo unspecified) here?
A: > 100 µM

Q: What about the TGI (SNB-75 CNS) of the same compound?
A: > 100 µM

Q: What about the TGI (SK-OV-3 ovarian) of the same compound?
A: > 100 µM

Q: And the TGI (SNB-19 CNS)?
A: > 100 µM

Q: What about the TGI (A549 NSCLC) of the same compound?
A: > 100 µM

Q: What about the TGI (DU-145 prostate) of the same compound?
A: > 100 µM

Q: What about the TGI (SR leukemia) of the same compound?
A: > 100 µM

Q: What about the TGI (NCI/ADR-RES ovarian) of the same compound?
A: > 100 µM

Q: And the TGI (HOP-92 NSCLC)?
A: > 100 µM

Q: What about the TGI (HCC-2998 colon) of the same compound?
A: > 88 µM

Q: Which results are given for `COc1ccc(/C=C2\NC(=S)N(CN3CCOCC3)C2=O)cc1`?
A: TGI (786-0 renal): > 100 µM; TGI (SNB-75 CNS): > 100 µM; TGI (SK-OV-3 ovarian): > 100 µM; TGI (SNB-19 CNS): > 100 µM; TGI (A549 NSCLC): > 100 µM; TGI (DU-145 prostate): > 100 µM; TGI (SR leukemia): > 100 µM; TGI (NCI/ADR-RES ovarian): > 100 µM; TGI (HOP-92 NSCLC): > 100 µM

Q: Which results are given for `O=C1C=C(NCCc2ccc(O)cc2)C(=O)C=C1NCCc1ccc(O)cc1`?
A: TGI (786-0 renal): > 100 µM; TGI (SNB-75 CNS): 47.5 µM; TGI (SK-OV-3 ovarian): > 100 µM; TGI (SNB-19 CNS): > 100 µM; TGI (A549 NSCLC): > 100 µM; TGI (DU-145 prostate): > 100 µM; TGI (SR leukemia): > 100 µM; TGI (NCI/ADR-RES ovarian): > 100 µM; TGI (HOP-92 NSCLC): > 100 µM; TGI (HCC-2998 colon): > 100 µM

Q: For `Nc1[nH]nc2c1Cc1c(n(Cc3ccc(Cl)cc3)c3ccccc13)C(=O)N2`, which TGI (SNB-75 CNS) is on record?
A: 30.6 µM

Q: What about the TGI (SK-OV-3 ovarian) of the same compound?
A: 34.6 µM

Q: What about the TGI (A549 NSCLC) of the same compound?
A: 46.2 µM

Q: And the TGI (DU-145 prostate)?
A: 24.4 µM

Q: And the TGI (SR leukemia)?
A: > 100 µM

Q: And the TGI (NCI/ADR-RES ovarian)?
A: 44.6 µM

Q: What about the TGI (HOP-92 NSCLC) of the same compound?
A: 31.5 µM

Q: What about the TGI (HCC-2998 colon) of the same compound?
A: 24.6 µM

Q: With `C[C@H](N)C(=O)Nc1ccc(-c2nc3ccccc3s2)cc1Cl` as the compound, how does the TGI (786-0 renal) read?
A: 25.7 µM

Q: What about the TGI (SNB-75 CNS) of the same compound?
A: 34.8 µM

Q: And the TGI (SK-OV-3 ovarian)?
A: 32.7 µM

Q: And the TGI (SNB-19 CNS)?
A: 30.4 µM

Q: What about the TGI (A549 NSCLC) of the same compound?
A: 27.6 µM

Q: What about the TGI (DU-145 prostate) of the same compound?
A: 32.1 µM

Q: And the TGI (SR leukemia)?
A: 13.9 µM

Q: And the TGI (NCI/ADR-RES ovarian)?
A: > 100 µM

Q: And the TGI (HOP-92 NSCLC)?
A: > 100 µM

Q: What about the TGI (HCC-2998 colon) of the same compound?
A: 17.9 µM

Q: What does the source list for `[B]C(=O)NC(CC(C)C)C(=O)NC1c2ccsc2C(=O)C1O` (stereo unspecified) (tested in a mixture with another compound)?
A: TGI (786-0 renal): > 100 µM; TGI (SNB-75 CNS): > 100 µM; TGI (SK-OV-3 ovarian): > 100 µM; TGI (SNB-19 CNS): > 100 µM; TGI (A549 NSCLC): > 100 µM; TGI (DU-145 prostate): > 100 µM; TGI (SR leukemia): > 100 µM; TGI (NCI/ADR-RES ovarian): > 100 µM; GI50 (HOP-92 NSCLC): 44.6 µM and > 100 µM; TGI (HOP-92 NSCLC): > 100 µM; TGI (HCC-2998 colon): > 100 µM

Q: Which TGI (786-0 renal) does the source give for `COc1ccc(/C=C/C(=O)N[C@@H]2C(=O)N3[C@@H]2SC(C)(C)[C@@H]3C(=O)O)cc1OC` here?
A: > 100 µM

Q: And the TGI (SNB-75 CNS)?
A: > 100 µM

Q: And the TGI (SK-OV-3 ovarian)?
A: > 100 µM

Q: And the TGI (SNB-19 CNS)?
A: > 100 µM

Q: What about the TGI (A549 NSCLC) of the same compound?
A: > 100 µM

Q: What about the TGI (DU-145 prostate) of the same compound?
A: > 100 µM

Q: And the TGI (SR leukemia)?
A: > 100 µM

Q: And the TGI (NCI/ADR-RES ovarian)?
A: > 100 µM

Q: And the TGI (HOP-92 NSCLC)?
A: > 100 µM

Q: What about the TGI (HCC-2998 colon) of the same compound?
A: > 100 µM

Q: What does the source list for `O=c1oc2ccc([N+](=O)[O-])cc2cc1-c1csc(-c2ccccc2)n1`?
A: TGI (786-0 renal): > 100 µM; TGI (SNB-75 CNS): > 100 µM; TGI (SK-OV-3 ovarian): > 100 µM; TGI (SNB-19 CNS): > 100 µM; TGI (A549 NSCLC): > 100 µM; TGI (DU-145 prostate): > 100 µM; TGI (SR leukemia): > 100 µM; TGI (NCI/ADR-RES ovarian): > 100 µM; TGI (HOP-92 NSCLC): > 100 µM; TGI (HCC-2998 colon): > 100 µM

Q: For `CCN(CC)C(=O)CCNC(C)Cc1c[nH]c2ccccc12` (stereo unspecified), which TGI (786-0 renal) is on record?
A: > 100 µM

Q: What about the TGI (SNB-75 CNS) of the same compound?
A: > 100 µM

Q: What about the TGI (SK-OV-3 ovarian) of the same compound?
A: > 100 µM

Q: And the TGI (SNB-19 CNS)?
A: > 100 µM

Q: What about the TGI (A549 NSCLC) of the same compound?
A: > 100 µM

Q: And the TGI (DU-145 prostate)?
A: > 100 µM

Q: What about the TGI (SR leukemia) of the same compound?
A: > 100 µM

Q: What about the TGI (NCI/ADR-RES ovarian) of the same compound?
A: > 100 µM

Q: What about the TGI (HOP-92 NSCLC) of the same compound?
A: > 100 µM

Q: What about the TGI (HCC-2998 colon) of the same compound?
A: > 100 µM

Q: Which results are given for `CC1(C)C/C=C\CCC(O)C(O)CCC(C)(C)C1=O` (stereo unspecified)?
A: TGI (786-0 renal): > 100 µM; TGI (SNB-75 CNS): > 100 µM; TGI (SK-OV-3 ovarian): > 100 µM; TGI (SNB-19 CNS): > 100 µM; TGI (A549 NSCLC): > 100 µM; TGI (DU-145 prostate): > 100 µM; TGI (SR leukemia): > 100 µM; TGI (NCI/ADR-RES ovarian): > 100 µM; TGI (HOP-92 NSCLC): > 100 µM; TGI (HCC-2998 colon): > 100 µM

Q: `Cc1cccc2c1CC1(Cc3c(C)cccc3C1=O)C2=O` was tested. Which TGI (786-0 renal) did it give?
A: > 100 µM

Q: And the TGI (SNB-75 CNS)?
A: > 100 µM

Q: And the TGI (SK-OV-3 ovarian)?
A: > 100 µM

Q: What about the TGI (SNB-19 CNS) of the same compound?
A: > 100 µM

Q: And the TGI (A549 NSCLC)?
A: > 100 µM

Q: And the TGI (DU-145 prostate)?
A: > 100 µM

Q: What about the TGI (SR leukemia) of the same compound?
A: > 100 µM

Q: What about the TGI (NCI/ADR-RES ovarian) of the same compound?
A: > 100 µM

Q: What about the TGI (HOP-92 NSCLC) of the same compound?
A: > 100 µM

Q: What about the TGI (HCC-2998 colon) of the same compound?
A: > 100 µM
